Data as given in ChEMBL document CHEMBL4665869, “New thiazolopyrimidine as anticancer agents: Synthesis, biological evaluation, DNA binding, molecular modeling and ADMET study” (Bioorg Med Chem Lett, 2020).
Values after ≈ are worked out from the molar mass of the structure shown.

Key:
CAKI-1 = experiment: Growth inhibition of human CAKI-1 cells at 10 uM relative to control; format: functional; conditions: read-out: GI
SK-MEL-28 = experiment: Growth inhibition of human SK-MEL-28 cells at 10 uM relative to control; format: functional; conditions: read-out: GI
UACC-257 = experiment: Growth inhibition of human UACC-257 cells at 10 uM relative to control; format: functional; conditions: read-out: GI
CCRF-CEM = experiment: Growth inhibition of human CCRF-CEM cells at 10 uM relative to control; format: functional; conditions: read-out: GI
SF-268 = experiment: Growth inhibition of human SF-268 cells at 10 uM relative to control; format: functional; conditions: read-out: GI
IGROV-1 = experiment: Growth inhibition of human IGROV-1 cells at 10 uM relative to control; format: functional; conditions: read-out: GI
SF-295 = experiment: Growth inhibition of human SF-295 cells at 10 uM relative to control; format: functional; conditions: read-out: GI
BT-549 = experiment: Growth inhibition of human BT-549 cells at 10 uM relative to control; format: functional; conditions: read-out: GI
NCI-H322M = experiment: Growth inhibition of human NCI-H322M cells at 10 uM relative to control; format: functional; conditions: read-out: GI
SR = experiment: Growth inhibition of human SR cells at 10 uM relative to control; format: functional; conditions: read-out: GI
SN12C = experiment: Growth inhibition of human SN12C cells at 10 uM relative to control; format: functional; conditions: read-out: GI
UO-31 = experiment: Growth inhibition of human UO-31 cells at 10 uM relative to control; format: functional; conditions: read-out: GI
LOX IMVI = experiment: Growth inhibition of human LOX IMVI cells at 10 uM relative to control; format: functional; conditions: read-out: GI
MDA-MB-231 = experiment: Growth inhibition of human MDA-MB-231 cells at 10 uM relative to control; format: functional; conditions: read-out: GI
U-251 = experiment: Growth inhibition of human U-251 cells at 10 uM relative to control; format: functional; conditions: read-out: GI
OVCAR-4 = experiment: Growth inhibition of human OVCAR-4 cells at 10 uM relative to control; format: functional; conditions: read-out: GI
NCI-H460 = experiment: Growth inhibition of human NCI-H460 cells at 10 uM relative to control; format: functional; conditions: read-out: GI
HCC 2998 = experiment: Growth inhibition of human HCC 2998 cells at 10 uM relative to control; format: functional; conditions: read-out: GI
COLO 205 = experiment: Growth inhibition of human COLO 205 cells at 10 uM relative to control; format: functional; conditions: read-out: GI
OVCAR-5 = experiment: Growth inhibition of human OVCAR-5 cells at 10 uM relative to control; format: functional; conditions: read-out: GI
HOP-62 = experiment: Growth inhibition of human HOP-62 cells at 10 uM relative to control; format: functional; conditions: read-out: GI
DU-145 = experiment: Growth inhibition of human DU-145 cells at 10 uM relative to control; format: functional; conditions: read-out: GI
OVCAR-8 = experiment: Growth inhibition of human OVCAR-8 cells at 10 uM relative to control; format: functional; conditions: read-out: GI
HL-60(TB) = experiment: Growth inhibition of human HL-60(TB) cells at 10 uM relative to control; format: functional; conditions: read-out: GI
NCI-H23 = experiment: Growth inhibition of human NCI-H23 cells at 10 uM relative to control; format: functional; conditions: read-out: GI
RXF 393 = experiment: Growth inhibition of human RXF 393 cells at 10 uM relative to control; format: functional; conditions: read-out: GI
A549 = experiment: Growth inhibition of human A549 cells at 10 uM relative to control; format: functional; conditions: read-out: GI
MDA-MB-468 = experiment: Growth inhibition of human MDA-MB-468 cells at 10 uM relative to control; format: functional; conditions: read-out: GI
MDA-MB-435 = experiment: Growth inhibition of human MDA-MB-435 cells at 10 uM relative to control; format: functional; conditions: read-out: GI
HCT-15 = experiment: Growth inhibition of human HCT-15 cells at 10 uM relative to control; format: functional; conditions: read-out: GI
TK-10 = experiment: Growth inhibition of human TK-10 cells at 10 uM relative to control; format: functional; conditions: read-out: GI
SF-539 = experiment: Growth inhibition of human SF-539 cells at 10 uM relative to control; format: functional; conditions: read-out: GI
NCI-H522 = experiment: Growth inhibition of human NCI-H522 cells at 10 uM relative to control; format: functional; conditions: read-out: GI
MOLT-4 = experiment: Growth inhibition of human MOLT-4 cells at 10 uM relative to control; format: functional; conditions: read-out: GI
M14 = experiment: Growth inhibition of human M14 cells at 10 uM relative to control; format: functional; conditions: read-out: GI
NCI-H226 = experiment: Growth inhibition of human NCI-H226 cells at 10 uM relative to control; format: functional; conditions: read-out: GI
Hs-578T = experiment: Growth inhibition of human Hs-578T cells at 10 uM relative to control; format: functional; conditions: read-out: GI
SW-620 = experiment: Growth inhibition of human SW-620 cells at 10 uM relative to control; format: functional; conditions: read-out: GI
NCI/ADR-RES = experiment: Growth inhibition of human NCI/ADR-RES cells at 10 uM relative to control; format: functional; conditions: read-out: GI
K562 = experiment: Growth inhibition of human K562 cells at 10 uM relative to control; format: functional; conditions: read-out: GI
ACHN = experiment: Growth inhibition of human ACHN cells at 10 uM relative to control; format: functional; conditions: read-out: GI
SNB-75 = experiment: Growth inhibition of human SNB-75 cells at 10 uM relative to control; format: functional; conditions: read-out: GI
786-0 = experiment: Growth inhibition of human 786-0 cells at 10 uM relative to control; format: functional; conditions: read-out: GI
UACC-62 = experiment: Growth inhibition of human UACC-62 cells at 10 uM relative to control; format: functional; conditions: read-out: GI
T47D = experiment: Growth inhibition of human T47D cells at 10 uM relative to control; format: functional; conditions: read-out: GI
KM12 = experiment: Growth inhibition of human KM12 cells at 10 uM relative to control; format: functional; conditions: read-out: GI
SK-MEL-2 = experiment: Growth inhibition of human SK-MEL-2 cells at 10 uM relative to control; format: functional; conditions: read-out: GI
A498 = experiment: Growth inhibition of human A498 cells at 10 uM relative to control; format: functional; conditions: read-out: GI
SNB-19 = experiment: Growth inhibition of human SNB-19 cells at 10 uM relative to control; format: functional; conditions: read-out: GI
PC-3 = experiment: Growth inhibition of human PC-3 cells at 10 uM relative to control; format: functional; conditions: read-out: GI
RPMI-8226 = experiment: Growth inhibition of human RPMI-8226 cells at 10 uM relative to control; format: functional; conditions: read-out: GI
HOP-92 = experiment: Growth inhibition of human HOP-92 cells at 10 uM relative to control; format: functional; conditions: read-out: GI
HT-29 = experiment: Growth inhibition of human HT-29 cells at 10 uM relative to control; format: functional; conditions: read-out: GI
SK-MEL-5 = experiment: Growth inhibition of human SK-MEL-5 cells at 10 uM relative to control; format: functional; conditions: read-out: GI
DNA = experiment: Displacement of methyl green from DNA (unknown origin) assessed as DNA intercalation after 24 hrs by colorimetric assay; format: nucleic-acid assay
HCT-116 = experiment: Growth inhibition of human HCT-116 cells at 10 uM relative to control; format: functional; conditions: read-out: GI
SK-OV-3 = experiment: Growth inhibition of human SK-OV-3 cells at 10 uM relative to control; format: functional; conditions: read-out: GI
MCF7 = experiment: Growth inhibition of human MCF7 cells at 10 uM relative to control; format: functional; conditions: read-out: GI
Malme-3M = experiment: Growth inhibition of human Malme-3M cells at 10 uM relative to control; format: functional; conditions: read-out: GI

COc1ccc(/C=C/C2=CC(c3ccc(OC)cc3)N3C=CSC3=N2)cc1 (centres undefined)
inhibition of growth at 10 µM (CAKI-1): < 10%
inhibition of growth at 10 µM (SK-MEL-28): < 10%
inhibition of growth at 10 µM (UACC-257): 11.9%
inhibition of growth at 10 µM (CCRF-CEM): < 10%
inhibition of growth at 10 µM (SF-268): < 10%
inhibition of growth at 10 µM (IGROV-1): < 10%
inhibition of growth at 10 µM (SF-295): < 10%
inhibition of growth at 10 µM (BT-549): < 10%
inhibition of growth at 10 µM (NCI-H322M): < 10%
inhibition of growth at 10 µM (SR): < 10%
inhibition of growth at 10 µM (SN12C): < 10%
inhibition of growth at 10 µM (UO-31): < 10%
inhibition of growth at 10 µM (LOX IMVI): < 10%
inhibition of growth at 10 µM (MDA-MB-231): < 10%
inhibition of growth at 10 µM (U-251): < 10%
inhibition of growth at 10 µM (OVCAR-4): < 10%
inhibition of growth at 10 µM (NCI-H460): < 10%
inhibition of growth at 10 µM (HCC 2998): < 10%
inhibition of growth at 10 µM (COLO 205): < 10%
inhibition of growth at 10 µM (OVCAR-5): < 10%
inhibition of growth at 10 µM (HOP-62): < 10%
inhibition of growth at 10 µM (DU-145): < 10%
inhibition of growth at 10 µM (OVCAR-8): < 10%
inhibition of growth at 10 µM (HL-60(TB)): < 10%
inhibition of growth at 10 µM (NCI-H23): < 10%
inhibition of growth at 10 µM (RXF 393): < 10%
inhibition of growth at 10 µM (A549): < 10%
inhibition of growth at 10 µM (MDA-MB-468): < 10%
inhibition of growth at 10 µM (MDA-MB-435): < 10%
inhibition of growth at 10 µM (HCT-15): < 10%
inhibition of growth at 10 µM (TK-10): < 10%
inhibition of growth at 10 µM (SF-539): < 10%
inhibition of growth at 10 µM (NCI-H522): < 10%
inhibition of growth at 10 µM (MOLT-4): < 10%
inhibition of growth at 10 µM (M14): < 10%
inhibition of growth at 10 µM (NCI-H226): < 10%
inhibition of growth at 10 µM (Hs-578T): < 10%
inhibition of growth at 10 µM (SW-620): < 10%
inhibition of growth at 10 µM (NCI/ADR-RES): < 10%
inhibition of growth at 10 µM (K562): < 10%
inhibition of growth at 10 µM (ACHN): < 10%
inhibition of growth at 10 µM (SNB-75): < 10%
inhibition of growth at 10 µM (786-0): < 10%
inhibition of growth at 10 µM (UACC-62): < 10%
inhibition of growth at 10 µM (T47D): < 10%
inhibition of growth at 10 µM (KM12): < 10%
inhibition of growth at 10 µM (SK-MEL-2): < 10%
inhibition of growth at 10 µM (A498): < 10%
inhibition of growth at 10 µM (SNB-19): < 10%
inhibition of growth at 10 µM (PC-3): 17.2%
inhibition of growth at 10 µM (RPMI-8226): < 10%
inhibition of growth at 10 µM (HOP-92): 10.1%
inhibition of growth at 10 µM (HT-29): < 10%
inhibition of growth at 10 µM (SK-MEL-5): < 10%
IC50 (DNA): 47.75 µg/mL (≈ 127 µM)
inhibition of growth at 10 µM (HCT-116): < 10%
inhibition of growth at 10 µM (SK-OV-3): < 10%
inhibition of growth at 10 µM (MCF7): < 10%
inhibition of growth at 10 µM (Malme-3M): < 10%
